Measurements taken from patent US20240053332A1, “Methods and Compositions Utilising Vitamin B12 Binding” (priority 2020, published 2024).

What was measured:
[1] = tested on: Bacteroides thetaiotaomicron (Bt); assay: growth of Bt dependent upon vitB12; type: cell-based
Experimental: Less growth is seen with serial 10-fold dilutions of B12-bound BEVs. By contrast and as controls, no growth is seen by adding 1 mM vitB12 directly to the cultures or by adding BEVs alone with no bound vitB12.

BtuG2 = assay: affinity of BtuG2 protein for B12; type: binding
Text: We believe that it is possible to exploit this tight interaction in the same way as the Biotin-avidin system. We have shown that it is possible to attach protein-linkers to vitamin B12, allow vitamin B12 to become attached to proteins that have the necessary exposed amino acid side chains. […] The attachment is specific and strong. • (b) With Mologic, we have shown that a B12-maleimide will bind to a lactate dehydrogenase antibody, allowing the complex to be used in an immunoassay. This provides the proof of principal that the B12-B12 binding protein system can be exploited in therapeutic assays and diagnostics in the same way as biotin-avidin.

cobalamin [vitB12]
growth of Bt in vitB12-deficient media ([1]; FIG. 1 left panel, 1 mM vitB12, bound to BEVs or added directly to the cultures): no growth | vitB12 concentration giving maximal growth of Bt ([1]; FIG. 1 right panel, no growth in its absence (0 nM)): 100 nM | affinity of BtuG2 for B12 (BtuG2): femtomolar region
